Data on 28 compounds can be found in ChEMBL document CHEMBL3826905, “1'-Homonucleosides and their structural analogues: A review” (Eur J Med Chem, 2016).

Values after ≈ are worked out from the molar mass of the structure shown.

Test [1] concerns Cytomegalovirus. Nature of the test: Antiviral activity against Cytomegalovirus AD169 infected in HEL cells. The settings on record: Human betaherpesvirus 5, AD169, HEL. The format is functional, organism-based.
For test [2], the system named is Cytomegalovirus. Nature of the test: Antiviral activity against Cytomegalovirus Davis 07/1 infected in HEL cells. Format: functional, organism-based. Conditions: Human betaherpesvirus 5, Davis 07/1, HEL.
The subject of the next test is Human alphaherpesvirus 3. Nature of the test: Antiviral activity against TK-deficient Varicella-zoster virus infected in HEL cells. The format is functional, organism-based. The settings on record: Human alphaherpesvirus 3, HEL.
In another test the test system is Influenza A virus. Nature of the test: Antiviral activity against Influenza A virus. Format: functional, organism-based.
The target of test [3] is T1, Inosine-adenosine-guanosine-nucleoside hydrolase (Trypanosoma brucei brucei, UniProt O15727).
T1 sequence (O15727 whole entry): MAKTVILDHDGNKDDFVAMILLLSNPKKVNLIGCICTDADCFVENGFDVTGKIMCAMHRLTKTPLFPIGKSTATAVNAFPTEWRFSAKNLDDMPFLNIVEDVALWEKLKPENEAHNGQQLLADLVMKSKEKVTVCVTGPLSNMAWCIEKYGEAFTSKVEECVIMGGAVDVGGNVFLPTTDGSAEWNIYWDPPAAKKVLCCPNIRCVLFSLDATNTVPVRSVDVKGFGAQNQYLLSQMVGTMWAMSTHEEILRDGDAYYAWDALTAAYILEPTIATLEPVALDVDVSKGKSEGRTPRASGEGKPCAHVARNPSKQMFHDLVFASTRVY
Description: Inhibition of Trypanosoma brucei brucei inosine-adenosine-guanosine nucleoside hydrolase expressed in Escherichia coli.

Test [4] addresses T2, Inosine-uridine preferring nucleoside hydrolase (Crithidia fasciculata, UniProt Q27546).
T2 sequence (Q27546 whole entry): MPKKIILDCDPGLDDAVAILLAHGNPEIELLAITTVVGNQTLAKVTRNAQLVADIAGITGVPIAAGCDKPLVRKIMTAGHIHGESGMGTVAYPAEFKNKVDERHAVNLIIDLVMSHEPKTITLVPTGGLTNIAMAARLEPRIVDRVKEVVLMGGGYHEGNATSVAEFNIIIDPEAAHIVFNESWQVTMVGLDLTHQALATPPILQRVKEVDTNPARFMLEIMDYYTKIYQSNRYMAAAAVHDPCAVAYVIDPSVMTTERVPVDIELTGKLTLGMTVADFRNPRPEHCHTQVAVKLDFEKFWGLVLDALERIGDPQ
Nature of the test: Inhibition of Crithidia fasciculata inosine-uridine nucleoside hydrolase expressed in Escherichia coli using p-nitrophenyl beta-D-ribofuranoside as substrate by xanthine oxidase coupled enzyme assay.

For another test, the system named is Hepatitis C virus. Description: Antiviral activity against Hepatitis C virus. The format is functional, organism-based, Hepacivirus hominis.
The next test relates to MOLT-4. Description: Cytostatic activity against human Molt4/C8 cells. Format: functional, cell-based. The settings on record: Homo sapiens, MOLT-4.
Test [5] in a line: Cytostatic activity against mouse L1210/0 cells. The format is functional, cell-based. Conditions: Mus musculus, L1210/0.
In the next test the test system is CCRF-CEM. Nature of the test: Cytostatic activity against human CEM/0 cells. The format is functional, cell-based.
Test [6] is described as follows: Antiproliferative activity against mouse L1210/0 cells after 48 hrs by trypan blue staining method. The format is functional, cell-based. The settings on record: L1210/0, 48 h.
A short description of test [7]: Antiproliferative activity against mouse L1210/0 cells. Format: functional, cell-based.
A short description of test [8]: Antiproliferative activity against human Molt4/C8 cells. Format: functional, cell-based. Conditions: MOLT-4.
Test [9] can be described thus: Antiproliferative activity against human CEM/0 cells. Format: functional, cell-based. The settings on record: CCRF-CEM.

As a reminder, the EC50 is the concentration that produces a half-maximal response. Higher therefore signals lower potency in that assay. In the case of `CC(C)(C)[Si](OC[C@H]1C[C@@H](Cn2cnc3c(N)ncnc32)c2cn(Cc3ccccc3)nc21)(c1ccccc1)c1ccccc1`, the 50% effective concentration (EC50) with Cytomegalovirus [1] came to 0.5 µM; in the test with Cytomegalovirus [2], 0.5 µM; with Human alphaherpesvirus 3, 1.5 µM.
For orientation: IC50 means the concentration needed to halve the response being measured. In the test with Influenza A virus, `O=c1[nH]cnc2c1ncn2C[C@H]1C[C@H](OCc2ccccc2)[C@@H](COCc2ccccc2)O1` showed an IC50 of 24.3 mg/L (≈ 54.4 µM).
A word on the Ki: it is a dissociation constant, usually derived from enzyme kinetics or from competition with a known ligand. A lower Ki goes with tighter binding. For `OC[C@H]1N[C@@H](Cn2cnc3c(O)ncnc32)[C@H](O)[C@@H]1O`, the inhibition constant (Ki) was 3.6 µM in test [3] and 5.4 µM in test [4].
In the test on Hepatitis C virus, `OCC12CCC(Cn3cnc4c(Cl)ncnc43)(O1)c1ccccc12` (stereo not drawn) came in with an EC50 of 45.1 µM.
Take `CC(C)Nc1ncnc2c1ncn2C[C@@H]1C[C@H](CO)c2ccccc21`: the IC50 (in the test on MOLT-4; in test [5]; in the test on CCRF-CEM) was 24 mg/L (≈ 71.1 µM) throughout.
Take `CC(C)(C)[Si](OC[C@H]1C[C@@H](Cn2cnc3c(Cl)nc(N)nc32)c2cn(Cc3ccccc3)nc21)(c1ccccc1)c1ccccc1`: the EC50 with Cytomegalovirus [1] is 0.44 µM; with Cytomegalovirus [2], 0.39 µM; in the test with Human alphaherpesvirus 3 it was 2.1 µM.
As to `Cn1ncc2c1[C@H](Cn1cnc3c(Cl)ncnc31)C[C@@H]2CO[Si](c1ccccc1)(c1ccccc1)C(C)(C)C`, the IC50 (in the test with MOLT-4; in [5]; in the test on CCRF-CEM) was 3.2 mg/L (≈ 5.74 µM) each time.
`Cc1cn(C[C@H]2C[C@H](O)[C@@H](CO)O2)c(=O)[nH]c1=O`: in the test with Influenza A virus, the midpoint of inhibition, the IC50, lay at 70.4 mg/L (≈ 275 µM).
On the same count and under the same terms, in the case of `O=c1ccn(C[C@H]2C[C@H](OCc3ccccc3)[C@@H](COCc3ccccc3)O2)c(=O)[nH]1` it was 108 mg/L (≈ 256 µM).
`Nc1nc(O)c2ncn(C[C@@H]3N[C@H](CO)[C@@H](O)[C@H]3O)c2n1`: the figures for the Ki in test [3] and in test [4] were 3.6 µM and 5.4 µM, respectively.
In the test with Influenza A virus, `Nc1ccn(C[C@H]2C[C@H](O)[C@@H](CO)O2)c(=O)n1` yielded a concentration for half-maximal inhibition (IC50) of 67.3 mg/L (≈ 279 µM).
`Nc1nc(Cl)c2ncn(C[C@@H]3C[C@H](CO)c4c(-c5ccccc5)nnc(-c5ccccc5)c43)c2n1` gave an IC50 in test [6] above 200 µM.
Consider `Nc1ncnc2c1ncn2C[C@H]1CCC[C@H]1CO`, for which the 50% inhibitory concentration (IC50) in test [7], in test [8] and in [9] was 100 mg/L (≈ 404 µM) each time.
Turning to `OC[C@H]1C[C@@H](Cn2cnc3c(Cl)ncnc32)c2ccccc21`, the IC50 (with MOLT-4; in [5]; in the test on CCRF-CEM) was 24 mg/L (≈ 76.2 µM) throughout.
Compound `Nc1nc(NC2CCCC2)c2ncn(C[C@@H]3C[C@H](CO)c4c(-c5ccccc5)nnc(-c5ccccc5)c43)c2n1` yielded an IC50 in test [6] of 65.7 µM.
In turn, `Clc1ncnc2c1ncn2CC12C=CC(O1)c1ccccc12` (stereo not drawn) yielded an EC50 in the test on Hepatitis C virus of 6.31 µM.
Take `Cn1ncc2c1[C@H](Cn1cnc3c(Cl)nc(N)nc31)C[C@@H]2CO`: the 50% inhibitory concentration (IC50) (in the test with MOLT-4; in test [5]; in the test on CCRF-CEM) was 3.2 mg/L (≈ 9.59 µM) throughout.
Take `O=c1[nH]c(=O)n([C@H]2CC[C@@H](CO)C2)cc1I`: the IC50 in [7] and in test [8] was 73 mg/L (≈ 217 µM) throughout.
`Nc1ccn(C[C@H]2C[C@H](OCc3ccccc3)[C@@H](COCc3ccccc3)O2)c(=O)n1` showed a concentration for half-maximal inhibition (IC50) in the test with Influenza A virus of 57.4 mg/L (≈ 136 µM).
The compound `OCC12CCC(O1)c1cc3ccccc3cc12` (stereo not drawn) registered an EC50 with Hepatitis C virus of 6.31 µM.
In turn, `O=C(OCC12C=CC(O1)c1cc3ccccc3cc12)c1ccccc1` (stereo not drawn) gave a 50% effective concentration (EC50) in the test with Hepatitis C virus of 6.31 µM.
As for `Cn1ncc2c1[C@H](Cn1ccc(=O)[nH]c1=O)C[C@@H]2CO[Si](c1ccccc1)(c1ccccc1)C(C)(C)C`, the concentration for half-maximal inhibition (IC50) (in the test with MOLT-4; in test [5]; in the test on CCRF-CEM) was 3.2 mg/L (≈ 6.22 µM) throughout.
`Cc1cn(C[C@@H]2C[C@H](CO)c3ccccc32)c(=O)[nH]c1=O`: the IC50 (in the test on MOLT-4; in [5]; in the test on CCRF-CEM) was 81 mg/L (≈ 283 µM) throughout.
Consider `OC[C@H]1C[C@@H](Cn2cnc3c(-c4ccc(Cl)cc4)ncnc32)c2ccccc21`, for which the half-maximal inhibitory concentration (IC50) (in the test on MOLT-4; in test [5]; in the test with CCRF-CEM) was 0.63 mg/L (≈ 1.61 µM) each time.
On to `OC[C@H]1C[C@@H](Cn2cnc3c(NC4CC4)ncnc32)c2ccccc21`, for which the IC50 (with MOLT-4; in test [5]; in the test with CCRF-CEM) was 24 mg/L (≈ 71.6 µM) throughout.
In the case of `OCC1CCCC1n1cnc2c(Cl)ncnc21` (stereo not drawn), the half-maximal inhibitory concentration (IC50) in test [7], in [8] and in test [9] was 19 mg/L (≈ 75.2 µM) throughout.
For `O=c1[nH]c(=O)n(C2CCCC2CO)cc1I` (stereo not drawn), the IC50 in test [7], in [8] and in test [9] was 65.8 mg/L (≈ 196 µM) in each case.
Regarding `Nc1nc2c(ncn2COC(CO)CO)c(=O)[nH]1` [GANCICLOVIR], the EC50 with Cytomegalovirus [1] is 0.25 µM; in the test with Cytomegalovirus [2], 0.4 µM.
